Like-named read-outs stand apart in the source and are kept apart here.
Experiments:
PARG = PARG (Homo sapiens, UniProt Q86W56); assay: Biochemical assay (PARG, TFMU-ADPr substrate)
[1] = tested on: Human breast squamous carcinoma cells HCC1806; assay: Cell function assay (In-Cell Western, PAR/pADPr after MMS); assay type: cell-based; details: read-out: IC50 (nM) in cell function assay
How it was run: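 HCC1806 cells adhered 24 h at 37 °C, 5% CO2, then were pretreated 1 h with compound (30000 nM down to 1 nM, plus 0 nM) or DMSO. MMS was then added at 0.5 mM final for 1 h before In-Cell Western detection of PAR/pADPr.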

HCC1806 = assay: Cell viability assay (CellTiter-Glo); assay type: cell-based, Human; details: HCC1806, 7 days, CellTiter-Glo, read-out: IC50 (nM) in cell viability assay
[2] = 4 nM PARG, 66.2 uM TFMU-ADPr, 3 min at room temperature
[3] = HCC1806, In-Cell Western, MMS treatment
[4] = HCC1806, compound 1 h then 0.5 mM MMS 1 h, PAR/pADPr antibody, In-Cell Western

PARG, sequence (Q86W56 whole entry): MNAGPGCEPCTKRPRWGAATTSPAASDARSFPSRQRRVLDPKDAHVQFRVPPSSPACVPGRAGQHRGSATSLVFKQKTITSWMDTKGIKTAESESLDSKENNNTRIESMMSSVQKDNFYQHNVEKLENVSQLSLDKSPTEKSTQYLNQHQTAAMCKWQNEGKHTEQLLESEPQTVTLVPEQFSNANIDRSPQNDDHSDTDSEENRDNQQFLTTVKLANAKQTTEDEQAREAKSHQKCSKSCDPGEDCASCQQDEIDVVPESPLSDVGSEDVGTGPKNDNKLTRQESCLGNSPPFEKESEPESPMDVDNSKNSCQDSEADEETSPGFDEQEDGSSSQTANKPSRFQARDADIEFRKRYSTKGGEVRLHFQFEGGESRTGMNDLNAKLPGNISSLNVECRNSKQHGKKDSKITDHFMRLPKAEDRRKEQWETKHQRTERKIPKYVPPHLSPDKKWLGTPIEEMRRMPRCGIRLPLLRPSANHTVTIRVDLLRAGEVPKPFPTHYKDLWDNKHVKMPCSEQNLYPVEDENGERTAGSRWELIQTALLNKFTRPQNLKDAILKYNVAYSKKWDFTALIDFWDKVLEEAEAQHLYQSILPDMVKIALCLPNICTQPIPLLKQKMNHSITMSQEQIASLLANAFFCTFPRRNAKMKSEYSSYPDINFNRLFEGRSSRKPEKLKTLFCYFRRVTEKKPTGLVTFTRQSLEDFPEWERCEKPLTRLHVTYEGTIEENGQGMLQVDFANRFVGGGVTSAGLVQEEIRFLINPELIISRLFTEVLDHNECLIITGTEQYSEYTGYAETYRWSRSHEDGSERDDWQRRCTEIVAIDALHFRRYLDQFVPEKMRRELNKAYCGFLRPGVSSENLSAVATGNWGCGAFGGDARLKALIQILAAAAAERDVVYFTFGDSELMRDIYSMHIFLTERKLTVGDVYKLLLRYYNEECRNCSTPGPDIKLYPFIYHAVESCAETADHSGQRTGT

Row | SMILES | IC50 (PARG; [2]) [nM] | IC50 (PARG; PARG, TFMU-ADPr substrate) [nM] | IC50 [1, 3] [nM] | IC50 [1, 4] [nM] | IC50 (HCC1806; Homo sapiens, HCC1806, 168 h) [nM] | IC50 (HCC1806) [nM]
1 | CC(C)C(=O)N1CCN(c2cc(S(=O)(=O)NC3(C)CC3)cn3c(-c4nnc(C(F)F)s4)ncc23)CC1 [Example 34, 3-(5-(difluoromethyl)-1,3,4-thiadiazol-2-yl)-8-(4-isobutyrylpiperazin-1-yl)-N-(1-methylcyclopropyl)imidazo[1,5-a]pyridine-6-sulfonamide] | < 100 | 1.22 | 5.77 | < 100 | < 500 | –
2 | CC(C)C(=O)N1CCN(c2cc(S(=O)(=O)NC3CC3)cn3c(-c4nnc(C(F)F)s4)ncc23)CC1 [Example 69, N-cyclopropyl-3-(5-(difluoromethyl)-1,3,4-thiadiazol-2-yl)-8-(4-isobutyrylpiperazin-1-yl)imidazo[1,5-a]pyridine-6-sulfonamide] | < 100 | 20 | 9.05 | < 100 | < 500 | 432
3 | CC(C)C(=O)N1CCN(c2cc(S(=O)(=O)NC34CC(C3)C4)cn3c(-c4nnc(C(F)F)s4)ncc23)CC1 [Example 54, N-(bicyclo[1.1.1]pentan-1-yl)-3-(5-(difluoromethyl)-1,3,4-thiadiazol-2-yl)-8-(4-isobutyrylpiperazin-1-yl)imidazo[1,5-a]pyridine-6-sulfonamide] | < 100 | 11.4 | 26.5 | < 100 | 5000 to 30000 | 9380
4 | C[C@@H]1CN(c2cc(S(=O)(=O)NC3(C#N)CC3)cn3c(-c4nnc(C(F)F)s4)ncc23)C[C@H](C)N1C(=O)C1CC1 [Example 78, N-(1-cyanocyclopropyl)-8-((3R,5S)-4-(cyclopropanecarbonyl)-3,5-dimethylpiperazin-1-yl)-3-(5-(difluoromethyl)-1,3,4-thiadiazol-2-yl)imidazo[1,5-a]pyridine-6-sulfonamide] | < 100 | 7.59 | 7.34 | < 100 | 500 to 5000 | 866
5 | [2H]c1nc(-c2nnc(C(F)F)s2)n2cc(S(=O)(=O)NC3(C#N)CC3)cc(N3CCN(C(=O)C4(C)CC4)[C@H](C)C3)c12 [Example 156, (R)—N-(1-cyanocyclopropyl)-3-(5-(difluoromethyl)-1,3,4-thiadiazol-2-yl)-8-(3-methyl-4-(1-methylcyclopropane-1-carbonyl)piperazin-1-yl)imidazo[1,5-a]pyridine-6-sulfonamide-1-d] | < 100 | 6.92 | 12 | < 100 | < 500 | 280
6 | CC1(O)CCN(c2cc(S(=O)(=O)NC3(C#N)CC3)cn3c(-c4nnc(C(F)F)s4)ncc23)CC1 [Example 65, N-(1-cyanocyclopropyl)-3-(5-(difluoromethyl)-1,3,4-thiadiazol-2-yl)-8-(4-hydroxy-4-methylpiperidin-1-yl)imidazo[1,5-a]pyridine-6-sulfonamide] | < 100 | 7.02 | 122 | 100 to 500 | 5000 to 30000 | 6000
7 | [2H]c1nc(-c2nnc(C(F)F)s2)n2cc(S(=O)(=O)NC3(CF)COC3)cc(N3CCN(C(=O)C(C)C)CC3)c12 [Example 153, 3-(5-(difluoromethyl)-1,3,4-thiadiazol-2-yl)-N-(3-(fluoromethyl)oxetan-3-yl)-8-(4-isobutyrylpiperazin-1-yl)imidazo[1,5-a]pyridine-6-sulfonamide-1-d] | < 100 | 5.34 | 2.99 | < 100 | 500 to 5000 | 352
8 | CC(C)C(=O)N1CCN(c2cc(S(=O)(=O)NC3(C#N)CC3)cn3c(-c4nnc(CO)s4)ncc23)CC1 [Example 366, N-(1-cyanocyclopropyl)-3-(5-(hydroxymethyl)-1,3,4-thiadiazol-2-yl)-8-(4-isobutyrylpiperazin-1-yl)imidazo[1,5-a]pyridine-6-sulfonamide] | < 100 | 7.94 | 70.4 | < 100 | 5000 to 30000 | 7730
9 | [2H]C1([2H])CCC1([2H])NS(=O)(=O)c1cc(N2CCN(C(=O)C(C)C)CC2)c2cnc(-c3nnc(C(F)F)s3)n2c1 (centres unmarked) [Example 57, N-(cyclobutyl-1,2,2-d3)-3-(5-(difluoromethyl)-1,3,4-thiadiazol-2-yl)-8-(4-isobutyrylpiperazin-1-yl)imidazo[1,5-a]pyridine-6-sulfonamide] | < 100 | 21.2 | 1110 | > 1000 | > 30000 | –
10 | C[C@@H]1CN(c2cc(S(=O)(=O)NC3(C#N)CC3)cn3c(-c4nnc(C(F)F)s4)ncc23)CCN1C(=O)C(C)(C)C [Example 84, (R)-N-(1-cyanocyclopropyl)-3-(5-(difluoromethyl)-1,3,4-thiadiazol-2-yl)-8-(3-methyl-4-pivaloylpiperazin-1-yl)imidazo[1,5-a]pyridine-6-sulfonamide] | < 100 | 11 | 6.85 | < 100 | < 500 | 472
11 | CC(C)C(=O)N1CCN(c2cc(S(=O)(=O)NC3(CO)CC3)cn3c(-c4nnc(C(F)F)s4)ncc23)CC1 [Example 37, 3-(5-(difluoromethyl)-1,3,4-thiadiazol-2-yl)-N-(1-(hydroxymethyl)cyclopropyl)-8-(4-isobutyrylpiperazin-1-yl)imidazo[1,5-a]pyridine-6-sulfonamide] | < 100 | 4.7 | 166 | – | 2670 | –
12 | CC1(NS(=O)(=O)c2cc(N3CCC4(CC3)COC4)c3cnc(-c4nnc(C(F)F)s4)n3c2)COC1 [Example 56, 3-(5-(difluoromethyl)-1,3,4-thiadiazol-2-yl)-N-(3-methyloxetan-3-yl)-8-(2-oxa-7-azaspiro[3.5]nonan-7-yl)imidazo[1,5-a]pyridine-6-sulfonamide] | < 100 | 0.86 | 22.9 | < 100 | 500 to 5000 | 802
13 | C[C@@H]1CN(c2cc(S(=O)(=O)NC3(C#N)CC3)cn3c(-c4nnc(C(F)F)s4)ncc23)CCN1C(=O)C(C)(C)F [Example 94, (R)-N-(1-cyanocyclopropyl)-3-(5-(difluoromethyl)-1,3,4-thiadiazol-2-yl)-8-(4-(2-fluoro-2-methylpropanoyl)-3-methylpiperazin-1-yl)imidazo[1,5-a]pyridine-6-sulfonamide] | < 100 | 9.55 | 23.4 | < 100 | < 500 | 350
14 | C#CC1(NS(=O)(=O)c2cc(N3CCN(C(=O)C(C)C)CC3)c3nnc(-c4nnc(C(F)F)s4)n3c2)CC1 [Example 102, 3-(5-(difluoromethyl)-1,3,4-thiadiazol-2-yl)-N-(1-ethynylcyclopropyl)-8-(4-isobutyrylpiperazin-1-yl)-[1,2,4]triazolo[4,3-a]pyridine-6-sulfonamide] | < 100 | 2.54 | 32.1 | < 100 | 5000 to 30000 | 5000
15 | CC1(C(=O)N2CCN(c3cc(S(=O)(=O)NC4(C#N)CC4)cn4c(-c5nnc(C(F)F)s5)ncc34)CC2)CC1 [Example 76, N-(1-cyanocyclopropyl)-3-(5-(difluoromethyl)-1,3,4-thiadiazol-2-yl)-8-(4-(1-methylcyclopropane-1-carbonyl)piperazin-1-yl)imidazo[1,5-a]pyridine-6-sulfonamide] | < 100 | 13.8 | 3.59 | < 100 | < 500 | 450
16 | C[C@@H]1CN(c2cc(S(=O)(=O)NC3(C)CC3)cn3c(-c4nnc(C(F)F)s4)nnc23)CCN1C(=O)C1(C)CC1 [Example 117, (R)-3-(5-(difluoromethyl)-1,3,4-thiadiazol-2-yl)-8-(3-methyl-4-(1-methylcyclopropane-1-carbonyl)piperazin-1-yl)-N-(1-methylcyclopropyl)-[1,2,4]triazolo[4,3-a]pyridine-6-sulfonamide] | < 100 | 8.71 | 1.49 | < 100 | < 500 | 256
17 | C[C@@H]1CN(c2cc(S(=O)(=O)NC3(C#N)CC3)cn3c(-c4nnc(C(F)(F)F)s4)ncc23)CCN1C(=O)C1(C)CC1 [Example 80, (R)-N-(1-cyanocyclopropyl)-8-(3-methyl-4-(1-methylcyclopropane-1-carbonyl)piperazin-1-yl)-3-(5-(trifluoromethyl)-1,3,4-thiadiazol-2-yl)imidazo[1,5-a]pyridine-6-sulfonamide] | < 100 | 28.8 | 7.57 | < 100 | 500 to 5000 | 764
18 | CC(C)C(=O)N1CCN(c2c(F)c(S(=O)(=O)NC3(C#N)CC3)cn3c(-c4nnc(C(F)F)s4)ncc23)CC1 [Example 52, N-(1-cyanocyclopropyl)-3-(5-(difluoromethyl)-1,3,4-thiadiazol-2-yl)-7-fluoro-8-(4-isobutyrylpiperazin-1-yl)imidazo[1,5-a]pyridine-6-sulfonamide] | < 100 | 3.66 | 53.2 | 100 to 500 | 500 to 5000 | 738

Source: US20260258035A1, “FIVE-MEMBERED AND SIX-MEMBERED NITROGEN-CONTAINING COMPOUND, AND INTERMEDIATE, PREPARATION METHOD AND USE THEREOF” (HANGZHOU SYNRX THERAPEUTICS BIOMEDICAL TECHNOLOGY CO., LTD., priority 2022, published 2026)
